Results on 3 compounds are retold here after article PMC2914114 (Molecular pharmaceutics, 2010).

Structures are written as SMILES.

The conditions of series [1]: calculated from Stokes-Einstein equation for equivalent spheres; cited from earlier work.
The next series can be described thus: Permeability. The note with it: human, pH 7.4.

As usually defined, the Papp is a coefficient for how fast a substance crosses the barrier. A high value points to fast passage.

As to `CC(C)[C@H](N)C(=O)OCCOCn1cnc2c(=O)[nH]c(N)nc21` [valacyclovir], the “A-B versus B-A relative permeability (PM)” value with hCMEC/D3 cells is “no differences between the A-B and B-A relative permeabilities”. For `NC(N)=O` [[^14C] Urea, Urea], the “PM (permeability across the monolayer itself)” value with hCMEC/D3 cells (pH 7.4) was 5.65 ± 0.08 × 10^−5 cm/sec. For the same compound, the “Molecular Radius” value in series [1] is reported as 2.67 Å. Regarding `OC[C@@H](O)[C@@H](O)[C@H](O)[C@H](O)CO` [[^14C] Mannitol, Mannitol], the “Molecular Radius” value in series [1] is on record as 4.10 Å. This compound also gave a Papp at 2 h, 0.25 µCi/mL in “Permeability” of 24.7 ± 0.2 ×10⁻⁶ cm/s.
